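Assay format: 96-well plates, 48-hour exposure. The concentration for 50% growth inhibition is given as GI50. The concentration for full growth arrest is given as TGI.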
Tests used:
Test in all cases: inhibition of tumour cell growth, NCI panel, 48 h
HCC-2998 colon = system: HCC-2998 colon
NCI-H23 lung = system: NCI-H23 lung
A549 NSCLC = system: A549 NSCLC
HL-60(TB) leukemia = system: HL-60(TB) leukemia
KM12 colon = system: KM12 colon
BT-549 breast = system: BT-549 breast
IGROV1 ovarian = system: IGROV1 ovarian
ACHN renal = system: ACHN renal
SF-295 CNS = system: SF-295 CNS
T-47D breast = system: T-47D breast
SR leukemia = system: SR leukemia
HT29 colon = system: HT29 colon
LOX IMVI melanoma = system: LOX IMVI melanoma
SK-MEL-28 melanoma = system: SK-MEL-28 melanoma
K-562 leukemia = system: K-562 leukemia
SW-620 colon = system: SW-620 colon
EKVX NSCLC = system: EKVX NSCLC
HCT-116 colon = system: HCT-116 colon
U251 CNS = system: U251 CNS
OVCAR-8 ovarian = system: OVCAR-8 ovarian
DU-145 prostate = system: DU-145 prostate
MCF7 breast = system: MCF7 breast
NCI-H460 lung = system: NCI-H460 lung
TK-10 renal = system: TK-10 renal
OVCAR-4 ovarian = system: OVCAR-4 ovarian
NCI-H226 lung = system: NCI-H226 lung
OVCAR-5 ovarian = system: OVCAR-5 ovarian
786-0 renal = system: 786-0 renal
M14 melanoma = system: M14 melanoma
SF-268 CNS = system: SF-268 CNS
UO-31 renal = system: UO-31 renal
HOP-62 NSCLC = system: HOP-62 NSCLC
HCT-15 colon = system: HCT-15 colon
COLO 205 colon = system: COLO 205 colon
MOLT-4 leukemia = system: MOLT-4 leukemia
SK-MEL-2 melanoma = system: SK-MEL-2 melanoma
NCI-H522 lung = system: NCI-H522 lung
SF-539 CNS = system: SF-539 CNS
CAKI-1 renal = system: CAKI-1 renal
SN12C renal = system: SN12C renal
SNB-75 CNS = system: SNB-75 CNS
SK-OV-3 ovarian = system: SK-OV-3 ovarian
SNB-19 CNS = system: SNB-19 CNS
HS 578T breast = system: HS 578T breast
UACC-62 melanoma = system: UACC-62 melanoma
SK-MEL-5 melanoma = system: SK-MEL-5 melanoma
NCI/ADR-RES ovarian = system: NCI/ADR-RES ovarian
RXF 393 renal = system: RXF 393 renal
RPMI-8226 leukemia = system: RPMI-8226 leukemia
HOP-92 NSCLC = system: HOP-92 NSCLC
PC-3 prostate = system: PC-3 prostate
A498 renal = system: A498 renal
UACC-257 melanoma = system: UACC-257 melanoma
OVCAR-3 ovarian = system: OVCAR-3 ovarian
CCRF-CEM leukemia = system: CCRF-CEM leukemia
MDA-MB-231 breast = system: MDA-MB-231 breast
MALME-3M melanoma = system: MALME-3M melanoma
MDA-MB-435 = system: MDA-MB-435

## COC(=O)c1c2c(c(C)[n+]([O-])c1C)C(=O)C(NCc1cccc(Cl)c1)=CC2=O
HCC-2998 colon
  GI50: 1.82 µM
  TGI: 4.46 µM
NCI-H23 lung
  GI50: 1.23 µM
  TGI: 3.25 µM
A549 NSCLC
  GI50: 1.94 µM
  TGI: 6.17 µM
HL-60(TB) leukemia
  GI50: 0.628 µM
  TGI: 3.55 µM
KM12 colon
  GI50: 1.56 µM
  TGI: 9.73 µM
BT-549 breast
  GI50: 1.54 µM
  TGI: 3.07 µM
IGROV1 ovarian
  GI50: 1.17 µM
  TGI: 2.98 µM
ACHN renal
  GI50: 1.52 µM
  TGI: 3.58 µM
SF-295 CNS
  GI50: 1.31 µM
  TGI: 2.72 µM
T-47D breast
  GI50: 1.69 µM
  TGI: 4.41 µM
SR leukemia
  GI50: 1.85 µM
  TGI: > 100 µM
HT29 colon
  GI50: 0.634 µM
  TGI: > 100 µM
LOX IMVI melanoma
  GI50: 1.76 µM
  TGI: 5.58 µM
SK-MEL-28 melanoma
  GI50: 3.17 µM
  TGI: 15 µM
K-562 leukemia
  GI50: 2.17 µM
  TGI: > 100 µM
SW-620 colon
  GI50: 1.01 µM
  TGI: 4.31 µM
EKVX NSCLC
  GI50: 1.51 µM
  TGI: 3.61 µM
HCT-116 colon
  GI50: 0.679 µM
  TGI: 4.9 µM
U251 CNS
  GI50: 2.1 µM
  TGI: 7.52 µM
OVCAR-8 ovarian
  GI50: 1.52 µM
  TGI: 9.78 µM
DU-145 prostate
  GI50: 1.91 µM
  TGI: 4.2 µM
MCF7 breast
  GI50: 1.1 µM
  TGI: 2.77 µM
NCI-H460 lung
  GI50: 0.659 µM
  TGI: 7.92 µM
TK-10 renal
  GI50: 3.69 µM
  TGI: 15.3 µM
OVCAR-4 ovarian
  GI50: 0.507 µM
  TGI: 1.85 µM
NCI-H226 lung
  GI50: 2.1 µM
  TGI: 4.67 µM
OVCAR-5 ovarian
  GI50: 1.81 µM
  TGI: 3.63 µM
786-0 renal
  GI50: 2.65 µM
  TGI: 13.9 µM
M14 melanoma
  GI50: 1.06 µM
  TGI: 2.4 µM
SF-268 CNS
  GI50: 2.53 µM
  TGI: 12.9 µM
UO-31 renal
  GI50: 1.53 µM
  TGI: 3.23 µM
HOP-62 NSCLC
  GI50: 2.3 µM
  TGI: 9.62 µM
HCT-15 colon
  GI50: 1.1 µM
  TGI: 2.75 µM
COLO 205 colon
  GI50: 0.388 µM
  TGI: 1.55 µM
MOLT-4 leukemia
  GI50: 2.01 µM
  TGI: 5.68 µM
SK-MEL-2 melanoma
  GI50: 1.95 µM
  TGI: 4.6 µM
NCI-H522 lung
  GI50: 1.91 µM
  TGI: 4.62 µM
SF-539 CNS
  GI50: 1.8 µM
  TGI: 3.26 µM
CAKI-1 renal
  GI50: 1.97 µM
  TGI: 5.63 µM
SN12C renal
  GI50: 1.02 µM
  TGI: 2.44 µM
SNB-75 CNS
  GI50: 2.1 µM
  TGI: 5.07 µM
SK-OV-3 ovarian
  GI50: 3.05 µM
  TGI: 12.8 µM
SNB-19 CNS
  GI50: 2.45 µM
  TGI: 7.8 µM
HS 578T breast
  GI50: 2.32 µM
  TGI: 6.91 µM
UACC-62 melanoma
  GI50: 1.24 µM
  TGI: 2.84 µM
SK-MEL-5 melanoma
  GI50: 0.2 µM
  TGI: 0.448 µM
NCI/ADR-RES ovarian
  GI50: 1.64 µM
  TGI: 5.81 µM
RXF 393 renal
  GI50: 1.48 µM
  TGI: 3.37 µM
RPMI-8226 leukemia
  GI50: 2.14 µM
  TGI: 7.81 µM
HOP-92 NSCLC
  GI50: 2.22 µM
  TGI: 4.54 µM
PC-3 prostate
  GI50: 1.62 µM
  TGI: 17.9 µM
A498 renal
  GI50: 1.56 µM
  TGI: 3.18 µM
UACC-257 melanoma
  GI50: 0.701 µM
  TGI: 2.28 µM
OVCAR-3 ovarian
  GI50: 0.322 µM
  TGI: 1.17 µM
CCRF-CEM leukemia
  GI50: 2.29 µM
  TGI: 8.53 µM
MDA-MB-231 breast
  GI50: 1.18 µM
  TGI: 4.88 µM
MALME-3M melanoma
  GI50: 0.171 µM
  TGI: 0.432 µM
MDA-MB-435
  GI50: 0.344 µM
  TGI: 1.13 µM

## CCCCN(CCCC)CC(O)c1ccc(OCc2ccccc2)c2ccccc12 (configuration not stated)
HCC-2998 colon
  GI50: 2.36 µM
  TGI: 6.34 µM
NCI-H23 lung
  GI50: 3.01 µM
  TGI: 13 µM
A549 NSCLC
  GI50: 8.45 µM
  TGI: 22.4 µM
HL-60(TB) leukemia
  GI50: 2.51 µM
  TGI: 8.25 µM
KM12 colon
  GI50: 3.4 µM
  TGI: 19.5 µM
BT-549 breast
  GI50: 5.32 µM
  TGI: 17.2 µM
IGROV1 ovarian
  GI50: 1.96 µM
  TGI: 16.7 µM
ACHN renal
  GI50: 4.76 µM
  TGI: 18 µM
SF-295 CNS
  GI50: 3.13 µM
  TGI: 11.6 µM
T-47D breast
  GI50: 3.74 µM
  TGI: 14.9 µM
SR leukemia
  GI50: 2.75 µM
  TGI: 8.4 µM
HT29 colon
  GI50: 1.52 µM
  TGI: 4.55 µM
LOX IMVI melanoma
  GI50: 1.94 µM
  TGI: 4.78 µM
SK-MEL-28 melanoma
  GI50: 6.08 µM
  TGI: 18.8 µM
K-562 leukemia
  GI50: 2.82 µM
  TGI: 10.4 µM
SW-620 colon
  GI50: 3.32 µM
  TGI: 14.5 µM
EKVX NSCLC
  GI50: 5.66 µM
  TGI: 20.2 µM
HCT-116 colon
  GI50: 2.84 µM
  TGI: 11.7 µM
U251 CNS
  GI50: 4.88 µM
  TGI: 17.1 µM
OVCAR-8 ovarian
  GI50: 11 µM
  TGI: 24.4 µM
DU-145 prostate
  GI50: 8.63 µM
  TGI: 22.6 µM
MCF7 breast
  GI50: 3.19 µM
  TGI: 10.9 µM
NCI-H460 lung
  GI50: 3.11 µM
  TGI: 10.5 µM
TK-10 renal
  GI50: 2.15 µM
  TGI: 5.24 µM
OVCAR-4 ovarian
  GI50: 6.22 µM
  TGI: 17.4 µM
NCI-H226 lung
  GI50: 4.03 µM
  TGI: 16.7 µM
OVCAR-5 ovarian
  GI50: 3.86 µM
  TGI: 16.2 µM
786-0 renal
  GI50: 2.56 µM
  TGI: 6.25 µM
M14 melanoma
  GI50: 3.13 µM
  TGI: 11.4 µM
SF-268 CNS
  GI50: 7.07 µM
  TGI: 24.2 µM
UO-31 renal
  GI50: 0.974 µM
  TGI: 7.13 µM
HOP-62 NSCLC
  GI50: 5.57 µM
  TGI: 19.7 µM
HCT-15 colon
  GI50: 2.58 µM
  TGI: 7.47 µM
COLO 205 colon
  GI50: 2.98 µM
  TGI: 12.1 µM
MOLT-4 leukemia
  GI50: 3.54 µM
  TGI: 16.5 µM
SK-MEL-2 melanoma
  GI50: 3.39 µM
  TGI: 12 µM
NCI-H522 lung
  GI50: 1.72 µM
  TGI: 4.37 µM
SF-539 CNS
  GI50: 5.09 µM
  TGI: 17 µM
CAKI-1 renal
  GI50: 1.98 µM
  TGI: 10.9 µM
SN12C renal
  GI50: 3.25 µM
  TGI: 14.9 µM
SNB-75 CNS
  GI50: 3.6 µM
  TGI: 15.8 µM
SK-OV-3 ovarian
  GI50: 8.31 µM
  TGI: 22.7 µM
SNB-19 CNS
  GI50: 3.79 µM
  TGI: 16.3 µM
HS 578T breast
  GI50: 4.99 µM
  TGI: 30.9 µM
UACC-62 melanoma
  GI50: 2.33 µM
  TGI: 11.2 µM
SK-MEL-5 melanoma
  GI50: 1.88 µM
  TGI: 3.69 µM
NCI/ADR-RES ovarian
  GI50: 3.74 µM
  TGI: 16 µM
RXF 393 renal
  GI50: 2.39 µM
  TGI: 4.93 µM
RPMI-8226 leukemia
  GI50: 2.22 µM
  TGI: 5.81 µM
HOP-92 NSCLC
  GI50: 1.87 µM
  TGI: 6.27 µM
PC-3 prostate
  GI50: 2.9 µM
  TGI: 15.6 µM
A498 renal
  GI50: 3.41 µM
  TGI: 14.5 µM
UACC-257 melanoma
  GI50: 5.21 µM
  TGI: 17.2 µM
OVCAR-3 ovarian
  GI50: 4.9 µM
  TGI: 18.3 µM
CCRF-CEM leukemia
  GI50: 3.35 µM
  TGI: 16.3 µM
MDA-MB-231 breast
  GI50: 2.28 µM
  TGI: 7.92 µM
MALME-3M melanoma
  GI50: 2.27 µM
  TGI: 7.09 µM
MDA-MB-435
  GI50: 3.17 µM
  TGI: 14 µM

Reference: PubChem BioAssay (NCI)
